Results from patent US4885297A, “Thiazolopyridine compounds, processes for the preparation thereof and pharmaceutical composition comprising the same” (Fujisawa Pharmaceutical Co., Ltd., priority 1987, dated 1989).
pIC50: −log10 of the molar value. Like-named read-outs stand apart in the source and are kept apart here.

Columns and labels:
[1] = system: Platelet aggregation (rabbit platelet rich plasma); test: Platelet aggregation in vitro (rabbit platelet rich plasma, ADP- or collagen-induced); type: cell-based; conditions: Oryctolagus cuniculus, rabbit PRP, pH 7.4, 37° C.
Experimental: Platelet rich plasma (PRP) which contains 6-7×10^8 platelets/ml was prepared from rabbit blood. To the 200 μl of PRP, 5 μl of calcium chloride (1 mM) and 50 μl of 25 mM Tris-acetate solution (pH 7.4) containing 120 mM NaCl or test compound were added successively, and then stirred for 2 min. at 37° C. To the solution, 5 μl of adenosine diphosphate (ADP) (2.5 μM) or collagen (2.5 μg/ml) was added to an aggregation inducer. Aggregation was measured by using an aggregometer (NKK HEMATRACER 1). Activities of inhibitors (test compounds) were expressed as ID50 values i.e. Doses required to inhibit the platelet aggregation responses by 50%.

[2] = system: Platelet aggregation (rat blood); test: Platelet aggregation ex vivo (collagen-induced, after oral administration); type: in vivo, Male Sprague-Dawley rats; conditions: one hour after administration, collagen 5.0 μg/ml
Experimental: Male Sprague-Dawley rats weighing about 250 g were used after overnight fasting. One hour after oral administration of test compound or vehicle of test compound (control), blood was collected into a tube containing 0.1 vol. of 3.8% sodium citrate. To the 0.45 ml of blood, 0.05 ml of collagen (final concentration 5.0 μg/ml) was added and then incubated for 5 min. at 37° C. under shaking.
The reaction was terminated by addition of 1 ml of 10 mM phosphate buffered saline (pH 7.4) containing 11.5 mM EDTA and 1% formalin. The reaction mixture was centrifuged at 70 xg for 5 min. and platelet count of upper phase was measured by Technicon Auto Analizer.
Platelet aggregation was calculated according to the following formula: [formula] A; Platelet count after addition of vehicle of collagen B; Platelet count after addition of collagen
Inhibition of the test compound was calculated according to the following formula; [formula] C; Platelet aggregation (%) of control D; Platelet aggregation (%) of Test compound

- pIC50 ([1]; inducer ADP (2.5 μM), read-out: ID50 ADP): 4.26
- pIC50 ([1]; inducer collagen (2.5 μg/ml), read-out: ID50 Collagen): 4.43
SMILES: CN1CCN(C(=O)Cn2c(=O)sc3ncc(Cl)cc32)CC1 [Example 2, 6-chloro-2-oxo-1-[(4-methyl-1-piperazinyl)carbonylmethyl]-1,2-dihydrothiazolo[5,4-b]pyridine]
- Inhibition (%) ([2]; 10 mg/kg oral): 8%
- Inhibition (%) ([2]; 32 mg/kg oral): 103%
- Inhibition (%) ([2]; 100 mg/kg oral): 121%
